The values that follow are results of earlier work, collected in publication PMC10323144, “Garbage in, garbage out: how reliable training data improved a virtual screening approach against SARS-CoV-2 MPro” (Frontiers in Pharmacology, 2023).

The structures appear in SMILES notation. Counter-ions that a name gives are not always drawn.

The data set concerns MPro. The following applies: compiled from peer-reviewed sources (287 compounds) ref the 18 original articles; cited from earlier work.

Consider `CC1(C)CN(C(=O)c2ccc(-c3cccc4nc(NC(=O)C5CC5)nn34)cc2)C1` [SOLCITINIB], for which the “Class (MPro activity class)” value was 0 (compounds with IC50 > 20 μM, percentage inhibition <80% at 20 µM or 50 μM, or percentage enzyme inhibition <50% at 10 µM were labelled as INACTIVE).

For `O=C(CCl)N1CCN(Cc2cc(Cl)ccc2CNC(=O)N2CCOCC2)CC1` [STU-CHA-6cae54d3-1], the “Class (MPro activity class)” value is on record as 1 (Compounds with IC50 < 10 µM or with a percentage of enzyme inhibition >50% at 10 µM were labelled as ACTIVE).

Turning to `N#C[C@@H]1C[C@@H]2C[C@@H]2N1C(=O)[C@@H](N)C12CC3CC(CC(O)(C3)C1)C2` [Saxagliptin], the “Class (MPro activity class)” value is 0 (compounds with IC50 > 20 μM, percentage inhibition <80% at 20 µM or 50 μM, or percentage enzyme inhibition <50% at 10 µM were labelled as INACTIVE).

For `O=c1cc(-c2ccc(O)cc2)oc2cc(O)c(O)c(O)c12` [Scutellarein], the “Class (MPro activity class)” value is reported as 1 (Compounds with IC50 < 10 µM or with a percentage of enzyme inhibition >50% at 10 µM were labelled as ACTIVE).

On to `O=C(O)[C@H]1O[C@@H](Oc2cc3oc(-c4ccc(O)cc4)cc(=O)c3c(O)c2O)[C@H](O)[C@@H](O)[C@@H]1O` [Scutellarin], for which the “Class (MPro activity class)” value is given as 0 (compounds with IC50 > 20 μM, percentage inhibition <80% at 20 µM or 50 μM, or percentage enzyme inhibition <50% at 10 µM were labelled as INACTIVE).

For `C=C[C@H]1[C@H](O[C@@H]2O[C@H](CO)[C@@H](O)[C@H](O)[C@H]2O)OC=C(C(=O)OC)[C@H]1CC(=O)O` [Secoxyloganin], the “Class (MPro activity class)” value was 0 (compounds with IC50 > 20 μM, percentage inhibition <80% at 20 µM or 50 μM, or percentage enzyme inhibition <50% at 10 µM were labelled as INACTIVE).

For `CC(C)[C@H](O)C(=O)N[C@@H](C)C(=O)N[C@@H]1C(=O)N(C)CCc2ccccc21` [Semagacestat], the “Class (MPro activity class)” value is listed as 0 (compounds with IC50 > 20 μM, percentage inhibition <80% at 20 µM or 50 μM, or percentage enzyme inhibition <50% at 10 µM were labelled as INACTIVE).

Consider `N[C@@H](CC(=O)N1CCn2c(nnc2C(F)(F)F)C1)Cc1cc(F)c(F)cc1F` [Sitagliptin], for which the “Class (MPro activity class)” value is reported as 0 (compounds with IC50 > 20 μM, percentage inhibition <80% at 20 µM or 50 μM, or percentage enzyme inhibition <50% at 10 µM were labelled as INACTIVE).

In the case of `CC(C)OC(=O)[C@H](C)N[P@](=O)(OC[C@H]1O[C@@H](n2ccc(=O)[nH]c2=O)[C@](C)(F)[C@@H]1O)Oc1ccccc1` [Sofosbuvir], the “Class (MPro activity class)” value is 0 (compounds with IC50 > 20 μM, percentage inhibition <80% at 20 µM or 50 μM, or percentage enzyme inhibition <50% at 10 µM were labelled as INACTIVE).

Consider `CCc1nc(-c2cccc(C)c2)c(-c2ccnc(NC(=O)c3ccccc3)c2)s1` [TAK-715], for which the “Class (MPro activity class)” value was 0 (compounds with IC50 > 20 μM, percentage inhibition <80% at 20 µM or 50 μM, or percentage enzyme inhibition <50% at 10 µM were labelled as INACTIVE).

`CC/C(=C(\c1ccccc1)c1ccc(OCCN(C)C)cc1)c1ccccc1` [TAMOXIFEN CITRATE]: the “Class (MPro activity class)” value is recorded as 0 (compounds with IC50 > 20 μM, percentage inhibition <80% at 20 µM or 50 μM, or percentage enzyme inhibition <50% at 10 µM were labelled as INACTIVE).

`Nc1nc(N)c2nc(-c3cccc(O)c3)c(-c3cccc(O)c3)nc2n1` [TG100-115]: the “Class (MPro activity class)” value is 0 (compounds with IC50 > 20 μM, percentage inhibition <80% at 20 µM or 50 μM, or percentage enzyme inhibition <50% at 10 µM were labelled as INACTIVE).

For the compound `Cc1ccncc1NC(=O)Cc1cc(Cl)cc(OC2CC(=O)N2)c1` (stereo not shown) [TRY-UNI-2eddb1ff-7], the “Class (MPro activity class)” value is reported as 1 (Compounds with IC50 < 10 µM or with a percentage of enzyme inhibition >50% at 10 µM were labelled as ACTIVE).

For `Cc1ccncc1NC(=O)Cc1cccc(Cl)c1` [TRY-UNI-714a760b-6], the “Class (MPro activity class)” value is reported as 0 (compounds with IC50 > 20 μM, percentage inhibition <80% at 20 µM or 50 μM, or percentage enzyme inhibition <50% at 10 µM were labelled as INACTIVE).

For `Cc1ccncc1NC(=O)Cc1cccc(C#N)c1` [TRY-UNI-714a760b-20], the “Class (MPro activity class)” value was 0 (compounds with IC50 > 20 μM, percentage inhibition <80% at 20 µM or 50 μM, or percentage enzyme inhibition <50% at 10 µM were labelled as INACTIVE).

Regarding `CCC[C@H](NC(=O)[C@@H]1[C@H]2CCC[C@H]2CN1C(=O)[C@@H](NC(=O)[C@@H](NC(=O)c1cnccn1)C1CCCCC1)C(C)(C)C)C(=O)C(=O)NC1CC1` [Telaprevir], the “Class (MPro activity class)” value is on record as 0 (compounds with IC50 > 20 μM, percentage inhibition <80% at 20 µM or 50 μM, or percentage enzyme inhibition <50% at 10 µM were labelled as INACTIVE).

For `COc1cnc(-n2cnc(C)n2)c2[nH]cc(C(=O)C(=O)N3CCN(C(=O)c4ccccc4)CC3)c12` [Temsavir], the “Class (MPro activity class)” value is recorded as 0 (compounds with IC50 > 20 μM, percentage inhibition <80% at 20 µM or 50 μM, or percentage enzyme inhibition <50% at 10 µM were labelled as INACTIVE).

Turning to `C[C@H](Cn1cnc2c(N)ncnc21)OCP(=O)(O)O` [Tenofovir], the “Class (MPro activity class)” value is given as 0 (compounds with IC50 > 20 μM, percentage inhibition <80% at 20 µM or 50 μM, or percentage enzyme inhibition <50% at 10 µM were labelled as INACTIVE).

With `O=c1sn(-c2cccc3ccccc23)c(=O)n1Cc1ccccc1` [Tideglusib], the “Class (MPro activity class)” value is listed as 1 (Compounds with IC50 < 10 µM or with a percentage of enzyme inhibition >50% at 10 µM were labelled as ACTIVE).

`CCC[C@@]1(CCc2ccccc2)CC(O)=C([C@H](CC)c2cccc(NS(=O)(=O)c3ccc(C(F)(F)F)cn3)c2)C(=O)O1` [Tipranavir]: the “Class (MPro activity class)” value is reported as 0 (compounds with IC50 > 20 μM, percentage inhibition <80% at 20 µM or 50 μM, or percentage enzyme inhibition <50% at 10 µM were labelled as INACTIVE).

Take `C[C@@H]1CCN(C(=O)CC#N)C[C@@H]1N(C)c1ncnc2[nH]ccc12` [Tofacitinib]: the “Class (MPro activity class)” value is recorded as 0 (compounds with IC50 > 20 μM, percentage inhibition <80% at 20 µM or 50 μM, or percentage enzyme inhibition <50% at 10 µM were labelled as INACTIVE).

`Cn1c(=O)cc(N2CCC[C@@H](N)C2)n(Cc2cc(F)ccc2C#N)c1=O` [Trelagliptin]: the “Class (MPro activity class)” value was 0 (compounds with IC50 > 20 μM, percentage inhibition <80% at 20 µM or 50 μM, or percentage enzyme inhibition <50% at 10 µM were labelled as INACTIVE).

With `C[C@]12CC[C@H]3[C@@H](CC[C@@]45O[C@@H]4C(O)=C(C#N)C[C@]35C)[C@@H]1CC[C@@H]2O` [Trilostane], the “Class (MPro activity class)” value is on record as 0 (compounds with IC50 > 20 μM, percentage inhibition <80% at 20 µM or 50 μM, or percentage enzyme inhibition <50% at 10 µM were labelled as INACTIVE).

With `CC(C)CC(NC(=O)OCc1ccccc1)C(=O)NC(CC1CCNC1=O)C(=O)C(=O)NC1CC1` (stereo not shown) [UAWJ246], the “Class (MPro activity class)” value was 1 (Compounds with IC50 < 10 µM or with a percentage of enzyme inhibition >50% at 10 µM were labelled as ACTIVE).

On to `O=C(NC(Cc1ccccc1)C(=O)NC(CC1CCNC1=O)C(O)S(=O)(=O)O)OCc1ccccc1` (stereo not shown) [UAWJ247], for which the “Class (MPro activity class)” value was 1 (Compounds with IC50 < 10 µM or with a percentage of enzyme inhibition >50% at 10 µM were labelled as ACTIVE).

As for `CC(C)CC(NC(=O)OCc1ccccc1)C(=O)NC(CC(C)C)C(=O)NC(CC1CCNC1=O)C(=O)C(=O)NC1CC1` (stereo not shown) [UAWJ248], the “Class (MPro activity class)” value was 1 (Compounds with IC50 < 10 µM or with a percentage of enzyme inhibition >50% at 10 µM were labelled as ACTIVE).

For the compound `CCCC(NC(=O)C(CC(C)C)NC(=O)OCc1ccccc1)C(=O)C(=O)NCc1ccccc1` (stereo not shown) [UAWJ257], the “Class (MPro activity class)” value is recorded as 0 (compounds with IC50 > 20 μM, percentage inhibition <80% at 20 µM or 50 μM, or percentage enzyme inhibition <50% at 10 µM were labelled as INACTIVE).

`CCOC(=O)c1c(CSc2ccccc2)n(C)c2cc(Br)c(O)c(CN(C)C)c12` [Umifenovir]: the “Class (MPro activity class)” value is recorded as 0 (compounds with IC50 > 20 μM, percentage inhibition <80% at 20 µM or 50 μM, or percentage enzyme inhibition <50% at 10 µM were labelled as INACTIVE).

Take `Cc1cc(Cn2nnc3c(-c4ccco4)nc(N)nc32)ccc1N` [VIPADENANT]: the “Class (MPro activity class)” value is on record as 0 (compounds with IC50 > 20 μM, percentage inhibition <80% at 20 µM or 50 μM, or percentage enzyme inhibition <50% at 10 µM were labelled as INACTIVE).

`CCn1c(=O)c(-c2cc[nH]n2)cc2c(C)nc(N)nc21` [VOXTALISIB]: the “Class (MPro activity class)” value was 0 (compounds with IC50 > 20 μM, percentage inhibition <80% at 20 µM or 50 μM, or percentage enzyme inhibition <50% at 10 µM were labelled as INACTIVE).

`C[C@H](NC(=O)/C(C#N)=C/c1cccc(Br)n1)c1ccccc1` [WP1066]: the “Class (MPro activity class)” value is listed as 0 (compounds with IC50 > 20 μM, percentage inhibition <80% at 20 µM or 50 μM, or percentage enzyme inhibition <50% at 10 µM were labelled as INACTIVE).

Regarding `COc1c(O)cc(O)c2c(=O)cc(-c3ccccc3)oc12` [Wogonin], the “Class (MPro activity class)” value is 0 (compounds with IC50 > 20 μM, percentage inhibition <80% at 20 µM or 50 μM, or percentage enzyme inhibition <50% at 10 µM were labelled as INACTIVE).

Regarding `COc1c(O[C@@H]2O[C@H](C(=O)O)[C@@H](O)[C@H](O)[C@H]2O)cc(O)c2c(=O)cc(-c3ccccc3)oc12` [Wogonoside], the “Class (MPro activity class)” value is 0 (compounds with IC50 > 20 μM, percentage inhibition <80% at 20 µM or 50 μM, or percentage enzyme inhibition <50% at 10 µM were labelled as INACTIVE).

For the compound `CC(NC(=O)C(Cc1ccccc1)NC(=O)OCc1ccccc1)C(=O)CF` (stereo not shown) [Z-FA-FMK], the “Class (MPro activity class)” value was 0 (compounds with IC50 > 20 μM, percentage inhibition <80% at 20 µM or 50 μM, or percentage enzyme inhibition <50% at 10 µM were labelled as INACTIVE).

For `CC(C)C[C@H](NC(=O)[C@H](Cc1ccccc1)NC(=O)c1cnccn1)B(O)O` [bortezomib], the “Class (MPro activity class)” value is reported as 0 (compounds with IC50 > 20 μM, percentage inhibition <80% at 20 µM or 50 μM, or percentage enzyme inhibition <50% at 10 µM were labelled as INACTIVE).

Turning to `CC(C)C[C@H](NC(=O)[C@H](CCc1ccccc1)NC(=O)CN1CCOCC1)C(=O)N[C@@H](Cc1ccccc1)C(=O)N[C@@H](CC(C)C)C(=O)[C@@]1(C)CO1` [carfilzomib], the “Class (MPro activity class)” value is 0 (compounds with IC50 > 20 μM, percentage inhibition <80% at 20 µM or 50 μM, or percentage enzyme inhibition <50% at 10 µM were labelled as INACTIVE).

Take `CC(C)c1nc(CN(C)C(=O)N[C@@H](CCN2CCOCC2)C(=O)N[C@H](CC[C@H](Cc2ccccc2)NC(=O)OCc2cncs2)Cc2ccccc2)cs1` [cobicistat]: the “Class (MPro activity class)” value is 1 (Compounds with IC50 < 10 µM or with a percentage of enzyme inhibition >50% at 10 µM were labelled as ACTIVE).
